The source of these data is the NIST ThermoML archive (doi:10.1021/acs.jced.6b00543).

Numbers after ± are expanded uncertainties.

For data set [1] the following is noted: Crystal; DTA.
Data set [2] is described as follows: Molar enthalpy of transition or fusion. As to conditions: Crystal; DSC.

As to `C[C@@H]1O[C@@H](O[C@H]2[C@H](Oc3cc(O)c(C(=O)CCc4ccc(O)cc4)c(O)c3)O[C@H](CO)[C@@H](O)[C@@H]2O)[C@H](O)[C@H](O)[C@H]1O` [naringin dihydrochalcone], in data set [1], the Normal melting temperature is 159.07 ± 0.53 °C. In addition, in data set [2], the “Molar enthalpy of transition or fusion” value stood at 7.08 ± 0.454 kcal/mol.
